Results as given in US20150322038A1, “PYRAZINE DERIVATIVES AND THEIR USE IN THE TREATMENT OF NEUROLOGICAL DISORDERS” (NOVARTIS AG, priority 2009, published 2015).
Where a name gives a salt, the structure may show the parent alone. Each block holds one compound with its values, some of them ahead of it.

Tests used:
[1] = test system: cellular release of amyloid peptide 1-40; test: Test 4: Inhibition of cellular release of amyloid peptide 1-40; type: cell-based; settings: Cricetulus griseus, Chinese hamster ovary cells transfected with the gene for amyloid precursor protein, 24 hours with compound, amyloid peptide 1-40 in supernatant, read-out: Bace IC50
Method: Test 4: Inhibition of Cellular Release of Amyloid Peptide 1-40
Chinese hamster ovary cells are transfected with the gene for amyloid precursor protein. The cells are plated at a density of 8000 cells/well into 96-well microtiter plates and cultivated for 24 hours in DMEM cell culture medium containing 10% FCS. The test compound is added to the cells at various concentrations, and the cells are cultivated for 24 hours in the presence of the test compound. The supernatants are collected, and the concentration of amyloid peptide 1-40 is determined using state of the art immunoassay techniques, for example sandwich ELISA, homogenous time-resolved fluorescence (HTRF) immunoassay, or electro-chemiluminescence immunoassay. The potency of the compound is calculated from the percentage of inhibition of amyloid peptide release as a function of the test compound concentration.

human BACE-1 = human BACE-1 (Homo sapiens, UniProt P56817); test: Test 1: Inhibition of human BACE-1; type: biochemical; settings: recombinant BACE-1, pH 4.5, fluorescence-quenched APP-derived peptide substrate
Sequence of human BACE-1 (P56817 46-457 limits assumed): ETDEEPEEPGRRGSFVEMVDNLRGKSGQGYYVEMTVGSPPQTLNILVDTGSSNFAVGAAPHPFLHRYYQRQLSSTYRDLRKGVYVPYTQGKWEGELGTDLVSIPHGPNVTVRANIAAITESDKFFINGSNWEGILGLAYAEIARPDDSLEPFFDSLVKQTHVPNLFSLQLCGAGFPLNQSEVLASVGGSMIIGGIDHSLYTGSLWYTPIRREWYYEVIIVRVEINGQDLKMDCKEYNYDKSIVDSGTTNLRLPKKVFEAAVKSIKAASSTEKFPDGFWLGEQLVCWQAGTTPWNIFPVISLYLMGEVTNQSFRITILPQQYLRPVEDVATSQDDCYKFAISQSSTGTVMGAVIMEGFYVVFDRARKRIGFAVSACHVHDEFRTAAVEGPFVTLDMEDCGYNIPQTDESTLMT
Method: Test 1: Inhibition of Human BACE-1
IC50 values are calculated from percentage of inhibition of BACE-1 activity as a function of the test compound concentration.

SMILES: Cc1cc(OC(F)F)cnc1C(=O)Nc1ccc(F)c([C@]2(C(F)F)CNCC(N)=N2)c1 (single isomer, unassigned) [Example 27]
IC50 [1]: 12 nM | IC50 (human BACE-1): 22 nM

SMILES: COc1cnc(C(=O)Nc2ccc(F)c([C@]3(C(F)F)CNCC(N)=N3)c2)c(N)n1 (single isomer, unassigned) [Example 28]
IC50 [1]: 5.7 nM | IC50 (human BACE-1): 20 nM

SMILES: CCN1CC(C)(c2cc(NC(=O)c3ncc(Cl)cc3Cl)ccc2F)N=C(N)C1=O (centres unmarked) [Example 8, 3,5-Dichloro-pyridine-2-carboxylic acid [3-(6-amino-4-ethyl-2-methyl-5-oxo-2,3,4,5-tetrahydro-pyrazin-2-yl)-4-fluoro-phenyl]-amide hydrochloride]
IC50 [1]: 74 nM | IC50 (human BACE-1): 21 nM

SMILES: COCCN1CC(C)(c2cc(NC(=O)c3ncc(Cl)cc3Cl)ccc2F)N=C(N)C1=O (centres unmarked) [Example 10, 3,5-Dichloro-pyridine-2-carboxylic acid {3-[6-amino-4-(2-methoxy-ethyl)-2-methyl-5-oxo-2,3,4,5-tetrahydro-pyrazin-2-yl]-4-fluoro-phenyl}-amide hydrochloride]
IC50 [1]: 74 nM | IC50 (human BACE-1): 34 nM

SMILES: N#Cc1ccc(C(=O)Nc2ccc(F)c(C3(C(F)F)CNCC(N)=N3)c2)nc1 (centres unmarked) [Example 17, 5-Cyano-pyridine-2-carboxylic acid [3-(6-amino-2-difluoromethyl-2,3,4,5-tetrahydro-pyrazin-2-yl)-4-fluoro-phenyl]-amide]
IC50 [1]: 74 nM | IC50 (human BACE-1): 28 nM

SMILES: N#Cc1ccc(C(=O)Nc2ccc(F)c(C3(C(F)F)CNC(=O)C(N)=N3)c2)nc1 (centres unmarked) [Example 18, 5-Cyano-pyridine-2-carboxylic acid [3-(6-amino-2-difluoromethyl-5-oxo-2,3,4,5-tetrahydro-pyrazin-2-yl)-4-fluoro-phenyl]-amide]
IC50 [1]: 61 nM | IC50 (human BACE-1): 21 nM

SMILES: CC(=O)N1CC(N)=NC(c2cc(NC(=O)c3ncc(Br)cc3C)ccc2F)(C(F)F)C1 (centres unmarked) [Example 21, 5-Bromo-3-methyl-pyridine-2-carboxylic acid [3-(4-acetyl-6-amino-2-difluoromethyl-2,3,4,5-tetrahydro-pyrazin-2-yl)-4-fluoro-phenyl]-amide]
IC50 [1]: 31 nM | IC50 (human BACE-1): 9 nM

SMILES: Cc1cc(Br)cnc1C(=O)Nc1ccc(F)c(C2(C(F)F)CN(C(=O)OCC(Cl)Cl)CC(N)=N2)c1 (centres unmarked) [Example 22, 5-Amino-3-{5-[(5-bromo-3-methyl-pyridine-2-carbonyl)-amino]-2-fluoro-phenyl}-3-difluoromethyl-3,6-dihydro-2H-pyrazine-1-carboxylic acid 2,2-dichloro-ethyl ester]
IC50 [1]: 21 nM | IC50 (human BACE-1): 5 nM

SMILES: COCC(=O)N1CC(N)=NC(c2cc(NC(=O)c3ncc(Br)cc3C)ccc2F)(C(F)F)C1 (centres unmarked) [Example 23, 5-Bromo-3-methyl-pyridine-2-carboxylic acid {3-[6-amino-2-difluoromethyl-4-(2-methoxy-acetyl)-2,3,4,5-tetrahydro-pyrazin-2-yl]-4-fluoro-phenyl}-amide]
IC50 [1]: 34 nM | IC50 (human BACE-1): 7 nM

SMILES: Cc1cc(Br)cnc1C(=O)Nc1ccc(F)c(C2(C(F)F)CN(C(=O)C3CC3)CC(N)=N2)c1 (centres unmarked) [Example 24, 5-Bromo-3-methyl-pyridine-2-carboxylic acid [3-(6-amino-4-cyclopropanecarbonyl-2-difluoromethyl-2,3,4,5-tetrahydro-pyrazin-2-yl)-4-fluoro-phenyl]-amide]
IC50 [1]: 28 nM | IC50 (human BACE-1): 11 nM

SMILES: Cc1cc(Br)cnc1C(=O)Nc1ccc(F)c(C2(C(F)F)CNCC(N)=N2)c1 (centres unmarked) [Example 25, 5-Bromo-3-methyl-pyridine-2-carboxylic acid [3-(6-amino-2-difluoromethyl-2,3,4,5-tetrahydro-pyrazin-2-yl)-4-fluoro-phenyl]-amide]
IC50 [1]: 10 nM | IC50 (human BACE-1): 28 nM

Continued, values first:

IC50 [1]: 980 nM | IC50 (human BACE-1): 1300 nM
SMILES: CCC1C(N)=NC(C)(c2cccc(NC(=O)c3ccc(Br)cn3)c2)C(=O)N1C (mixture of isomers) [Example 15, 5-Bromo-pyridine-2-carboxylic acid [3-(6-amino-5-ethyl-2,4-dimethyl-3-oxo-2,3,4,5-tetrahydro-pyrazin-2-yl)-phenyl]-amide]

IC50 [1]: 3200 nM | IC50 (human BACE-1): 4100 nM
SMILES: CN1CC(N)=NC(C)(c2cc(NC(=O)c3ccc(Br)cn3)ccc2F)C1=O (centres unmarked) [Example 1, 5-Bromo-pyridine-2-carboxylic acid [3-(6-amino-2,4-dimethyl-3-oxo-2,3,4,5-tetrahydro-pyrazin-2-yl)-4-fluoro-phenyl]-amide]

IC50 [1]: 120 nM | IC50 (human BACE-1): 180 nM
SMILES: CN1CC(N)=NC(C)(c2cc(NC(=O)c3ccc(Br)cn3)ccc2F)C1 (centres unmarked) [Example 2, 5-Bromo-pyridine-2-carboxylic acid [3-(6-amino-2,4-dimethyl-2,3,4,5-tetrahydro-pyrazin-2-yl)-4-fluoro-phenyl]-amide]

IC50 [1]: 260 nM | IC50 (human BACE-1): 400 nM
SMILES: CN1CC(N)=NC(C)(c2cccc(NC(=O)c3ccc(Br)cn3)c2)C1=O (centres unmarked) [Example 3, 5-Bromo-pyridine-2-carboxylic acid [3-(6-amino-2,4-dimethyl-3-oxo-2,3,4,5-tetrahydro-pyrazin-2-yl)-phenyl]-amide]

IC50 [1]: 91 nM | IC50 (human BACE-1): 95 nM
SMILES: CN1CC(C)(c2cc(NC(=O)c3ccc(Br)cn3)ccc2F)N=C(N)C1=O (centres unmarked) [Example 4, 5-Bromo-pyridine-2-carboxylic acid [3-(6-amino-2,4-dimethyl-5-oxo-2,3,4,5-tetrahydro-pyrazin-2-yl)-4-fluoro-phenyl]-amide hydrochloride]

IC50 [1]: 190 nM
SMILES: CN1CC(C)(c2cc(NC(=O)c3ccc(Cl)cn3)ccc2F)N=C(N)C1=O (centres unmarked) [Example 5, 5-Chloro-pyridine-2-carboxylic acid [3-(6-amino-2,4-dimethyl-5-oxo-2,3,4,5-tetrahydro-pyrazin-2-yl)-4-fluoro-phenyl]-amide hydrochloride]

IC50 [1]: 59 nM | IC50 (human BACE-1): 51 nM
SMILES: CCN1CC(C)(c2cc(NC(=O)c3ccc(Br)cn3)ccc2F)N=C(N)C1=O (centres unmarked) [Example 6, 5-Bromo-pyridine-2-carboxylic acid [3-(6-amino-4-ethyl-2-methyl-5-oxo-2,3,4,5-tetrahydro-pyrazin-2-yl)-4-fluoro-phenyl]-amide hydrochloride]

IC50 [1]: 160 nM | IC50 (human BACE-1): 68 nM
SMILES: CN1CC(C)(c2cc(NC(=O)c3ncc(Cl)cc3Cl)ccc2F)N=C(N)C1=O (centres unmarked) [Example 7, 3,5-Dichloro-pyridine-2-carboxylic acid [3-(6-amino-2,4-dimethyl-5-oxo-2,3,4,5-tetrahydro-pyrazin-2-yl)-4-fluoro-phenyl]-amide hydrochloride]

IC50 [1]: 37 nM | IC50 (human BACE-1): 33 nM
SMILES: CC(C)N1CC(C)(c2cc(NC(=O)c3ccc(Br)cn3)ccc2F)N=C(N)C1=O (centres unmarked) [Example 9, 5-Bromo-pyridine-2-carboxylic acid [3-(6-amino-4-isopropyl-2-methyl-5-oxo-2,3,4,5-tetrahydro-pyrazin-2-yl)-4-fluoro-phenyl]-amide hydrochloride]

IC50 [1]: 40 nM | IC50 (human BACE-1): 20 nM
SMILES: COCCN1CC(C)(c2cc(NC(=O)c3ccc(Br)cn3)ccc2F)N=C(N)C1=O (centres unmarked) [Example 11, 5-Bromo-pyridine-2-carboxylic acid {3-[6-amino-4-(2-methoxy-ethyl)-2-methyl-5-oxo-2,3,4,5-tetrahydro-pyrazin-2-yl]-4-fluoro-phenyl}-amide hydrochloride]

IC50 [1]: 84 nM | IC50 (human BACE-1): 20 nM
SMILES: Cn1cc(N2CC(C)(c3cc(NC(=O)c4ccc(Br)cn4)ccc3F)N=C(N)C2=O)cn1 (centres unmarked) [Example 12, 5-Bromo-pyridine-2-carboxylic acid {3-[6-amino-2-methyl-4-(1-methyl-1H-pyrazol-4-yl)-5-oxo-2,3,4,5-tetrahydro-pyrazin-2-yl]-4-fluoro-phenyl}-amide hydrochloride]

IC50 [1]: 280 nM | IC50 (human BACE-1): 7 nM
SMILES: CC1(c2cc(NC(=O)c3ccc(Br)cn3)ccc2F)CN(c2cccnc2)C(=O)C(N)=N1 (centres unmarked) [Example 13, 5-Bromo-pyridine-2-carboxylic acid [3-(6-amino-2-methyl-5-oxo-4-pyridin-3-yl-2,3,4,5-tetrahydro-pyrazin-2-yl)-4-fluoro-phenyl]-amide hydrochloride]

IC50 [1]: 130 nM | IC50 (human BACE-1): 63 nM
SMILES: CCN1CC(C)(c2cc(NC(=O)c3ccc(C#N)cn3)ccc2F)N=C(N)C1=O (centres unmarked) [Example 14, 5-Cyano-pyridine-2-carboxylic acid [3-(6-amino-4-ethyl-2-methyl-5-oxo-2,3,4,5-tetrahydro-pyrazin-2-yl)-4-fluoro-phenyl]-amide hydrochloride]

IC50 [1]: 6.7 nM | IC50 (human BACE-1): 30 nM
SMILES: NC1=NC(c2cc(NC(=O)c3ccc(Br)cn3)ccc2F)(C(F)F)CNC1 (centres unmarked) [Example 16, 5-Bromo-pyridine-2-carboxylic acid [3-(6-amino-2-difluoromethyl-2,3,4,5-tetrahydro-pyrazin-2-yl)-4-fluoro-phenyl]-amide]

IC50 [1]: 15 nM | IC50 (human BACE-1): 22 nM
SMILES: COC(=O)N1CC(N)=NC(c2cc(NC(=O)c3ccc(Br)cn3)ccc2F)(C(F)F)C1 (centres unmarked) [Example 19, 5-Amino-3-{5-[(5-bromo-pyridine-2-carbonyl)-amino]-2-fluoro-phenyl}-3-difluoromethyl-3,6-dihydro-2H-pyrazine-1-carboxylic acid methyl ester]

IC50 [1]: 57 nM | IC50 (human BACE-1): 52 nM
SMILES: COC(=O)N1CC(N)=NC(c2cc(NC(=O)c3ccc(C#N)cn3)ccc2F)(C(F)F)C1 (centres unmarked) [Example 20, 5-Amino-3-{5-[(5-cyano-pyridine-2-carbonyl)-amino]-2-fluoro-phenyl}-3-difluoromethyl-3,6-dihydro-2H-pyrazine-1-carboxylic acid methyl ester]
